# Earlier results as cited in patent US20240024227A1, “CANNABIS PLANT DERIVED EXTRACELLULAR VESICLES AND THERAPEUTIC METHODS USING THE SAME” (UNIVERSITY OF FLORIDA RESEARCH FOUNDATION, INCORPORATED, priority 2020, published 2024).
# Where two headings read alike, the source gives them in different places.
# Details: IP approximately 300 μg
SMILES,CBDa brain Cmax (ethanol Tween-80 solution),CBDa brain Cmax (vegetable oil),time of CBDa brain Cmax (vegetable oil or Tween-80),THCa levels in the brain
"C=C(C)[C@@H]1CCC(C)=C[C@H]1c1c(O)cc(CCCCC)c(C(=O)O)c1O [CBDa, Cannabidiolic acid]",13.2 ng/mg,2.0 ng/mg,30 min,
"CCCCCc1cc2c(c(O)c1C(=O)O)[C@@H]1C=C(C)CC[C@H]1C(C)(C)O2 [THCa, tetrahydrocannabinolic acid]",,,,below detection
